Key:
[1] = test system: breast carcinoma MDA-MB-231; set-up: method as in PMID 26101532; details: MDA-MB-231, third of three values, order assumed; cited from earlier work
HeLa = test: MTT antiproliferative assay, HeLa; type: cell-based; details: Homo sapiens, 72 h, no IC50 calculated when less than 50% inhibition at 10 μM
Excerpt: (§1) The antiproliferative activities of the prepared diterpene analogues were studied using an MTT assay on a panel of human adherent cancer lines, including cells from cervical (HeLa), breast (MDA-MB-231, MCF-7), and ovary cancers (A2780), as given in Figure 1 and Table S1 in the Supplementary Materials. A non-malignant fibroblast cell line (NIH/3T3) was also utilised to obtain preliminary information on the cancer selectivity of the tested compounds. Based on the obtained activities, some conclusions could be drawn regarding the structure–activity relationships (SARs). Since neither the key intermediate benzyl ester of hydroxylaldehyde 4 nor the N-Boc protected aminoalcohols (6, 7, 11, 12) or even compound 8 with a free carboxylic function exerted remarkable antiproliferative effects (except for 12 against A2780 ovarian cancer cells), we could conclude that the simultaneous presence of the ester function and the basic secondary amino function were essential for the inhibition of cell growth. […] All active molecules inhibited considerably the proliferation of non-malignant cells, which meant that most currently presented agents were not optimal for further investigations of their anticancer properties.
(§2) The growth-inhibitory effects of the isosteviol-based 1,3-aminoalcohols were determined by a standard MTT (3-(4,5-dimethylthiazol-2-yl)-2,5-diphenyltetrazolium bromide) assay on a panel containing five cell lines, including Hela (cervical cancer), MDA-MB-231 and MCF-7 (breast cancers), and A2780 ovarian cancer cells. All cell lines were purchased from the European Collection of Cell Cultures (Salisbury, UK). The cells were maintained in a minimal essential medium supplemented with 10% foetal bovine serum, 1% non-essential amino acids, and 1% penicillin–streptomycin at 37 °C in a humidified atmosphere containing 5% CO2. All media and supplements were obtained from Lonza Group Ltd. (Basel, Switzerland). Cancer cells were seeded into 96-well plates (5000 cells/well); after overnight incubation, the test compound was added in two different concentrations (10 µM and 30 µM) and incubated for another 72 h under cell-culturing conditions. In the next step, 20 μL of 5 mg/mL of an MTT solution was added to each well and incubated for a further 4 h. The medium was removed and the precipitated formazan crystals were dissolved in DMSO after 60 min of shaking at 37 °C. As a final step, the absorbance was measured at 545 nm by using a microplate reader. Untreated cells were included as controls. […] Two independent experiments were performed with five wells for each condition. Calculations were performed using the GraphPad Prism 10.0 software (GraphPad Software Inc., San Diego, CA, USA).

NIH/3T3 = test: MTT assay on non-malignant fibroblasts; type: cell-based; details: Mus musculus, NIH3T3, 72 h, no IC50 calculated when less than 50% inhibition at 10 μM
Excerpt: as §1, §2

A2780 = test: MTT antiproliferative assay, A2780; type: cell-based; details: Homo sapiens, 72 h, no IC50 calculated when less than 50% inhibition at 10 μM
Excerpt: as §1, §2

MDA-MB-231 = test: MTT antiproliferative assay, MDA-MB-231; type: cell-based; details: Homo sapiens, 72 h, no IC50 calculated when less than 50% inhibition at 10 μM
Excerpt: as §1, §2

MCF-7 = test: MTT antiproliferative assay, MCF-7; type: cell-based; details: Homo sapiens, MCF7, 72 h, no IC50 calculated when less than 50% inhibition at 10 μM
Excerpt: as §1, §2

| SMILES | IC50 [1] [µM] | IC50 (HeLa) [µM] | IC50 (NIH/3T3) [µM] | melting point [°C] | IC50 (A2780) [µM] | IC50 (MDA-MB-231) [µM] | IC50 (MCF-7) [µM] |
| --- | --- | --- | --- | --- | --- | --- | --- |
| COc1cccc2c1C(=O)c1c(O)c3c(c(O)c1C2=O)C[C@@](O)(C(=O)CO)C[C@@H]3O[C@H]1C[C@H](N)[C@H](O)[C@H](C)O1 [Adriamycin] | 2.26 | – | – | – | – | – | – |
| C[C@]12CCC3[C@](CC[C@@H]4[C@](C)(C(=O)O)CCC[C@@]34C)(C1)[C@H](CNCc1ccc(F)cc1)[C@H]2O (stereo partly drawn) [Compound 8, (4R,4aS,6aS,7R,8R,9S,11bS)-7-(((4-Fluorobenzyl)amino)methyl)-8-hydroxy-4,9,11b-trimethyltetradecahydro-6a,9-methanocyclohepta[a]naphthalene-4-carboxylic Acid] | – | > 10 | > 10 | 149 to 150 | > 10 | > 10 | > 10 |
| C#CCOC(=O)[C@]1(C)CCC[C@@]2(C)C3CC[C@@]4(C)C[C@]3(CC[C@H]12)[C@H](CNCc1ccc(F)cc1)[C@H]4O (stereo partly drawn) [Compound 14, (4R,4aS,6aS,7R,8R,9S,11bS)-Prop-2-yn-1-yl 7-(((4-fluorobenzyl)amino)methyl)-8-hydroxy-4,9,11b-trimethyltetradecahydro-6a,9-methanocyclohepta[a]naphthalene-4-carboxylate] | – | 2.7 | 5.92 | 104 to 105 | 1.36 | 2.23 | 1.54 |
| CC[C@@H](NC[C@@H]1[C@@H](O)[C@@]2(C)CCC3[C@]1(CC[C@@H]1[C@](C)(C(=O)OC)CCC[C@@]31C)C2)c1ccccc1 (stereo partly drawn) [Compound 24, (4R,4aS,6aS,7R,8R,9S,11bS)-Methyl 8-hydroxy-4,9,11b-trimethyl-7-((((R)-1-phenylpropyl)amino)methyl)tetradecahydro-6a,9-methanocyclohepta[a]naphthalene-4-carboxylate] | – | 3.04 | 4.44 | – | 4.52 | 4.99 | 2.37 |
| CC[C@H](NC[C@@H]1[C@@H](O)[C@@]2(C)CCC3[C@]1(CC[C@@H]1[C@](C)(C(=O)OC)CCC[C@@]31C)C2)c1ccccc1 (stereo partly drawn) [Compound 25, (4R,4aS,6aS,7R,8R,9S,11bS)-Methyl 8-hydroxy-4,9,11b-trimethyl-7-((((S)-1-phenylpropyl)amino)methyl)tetradecahydro-6a,9-methanocyclohepta[a]naphthalene-4-carboxylate] | – | 4.43 | 3.98 | – | 4.83 | 6.53 | 4.17 |
| COC(=O)[C@]1(C)CCC[C@@]2(C)C3CC[C@@]4(C)C[C@]3(CC[C@H]12)[C@H](CN[C@@H](C)c1ccc2ccccc2c1)[C@H]4O (stereo partly drawn) [Compound 26, (4R,4aS,6aS,7R,8R,9S,11bS)-Methyl 8-hydroxy-4,9,11b-trimethyl-7-((((S)-1-(naphthalen-2-yl)ethyl)amino)methyl)tetradecahydro-6a,9-methanocyclohepta[a]naphthalene-4-carboxylate] | – | 4.33 | 3.12 | – | 4.11 | 6.07 | 3.67 |
| COC(=O)[C@]1(C)CCC[C@@]2(C)C3CC[C@@]4(C)C[C@]3(CC[C@H]12)[C@H](CN[C@H](C)c1ccc2ccccc2c1)[C@H]4O (stereo partly drawn) [Compound 27, (4R,4aS,6aS,7R,8R,9S,11bS)-Methyl 8-hydroxy-4,9,11b-trimethyl-7-((((R)-1-(naphthalen-2-yl)ethyl)amino)methyl)tetradecahydro-6a,9-methanocyclohepta[a]naphthalene-4-carboxylate] | – | 3.4 | 5.03 | – | 3.26 | 4.11 | 2.43 |
| COC(=O)[C@]1(C)CCC[C@@]2(C)C3CC[C@@]4(C)C[C@]3(CC[C@H]12)[C@H](CNCCCn1ccnc1)[C@H]4O (stereo partly drawn) [Compound 28, (4R,4aS,6aS,7R,8R,9S,11bS)-Methyl 7-(((3-(1H-imidazol-1-yl)propyl)amino)methyl)-8-hydroxy-4,9,11b-trimethyltetradecahydro-6a,9-methanocyclohepta[a]naphthalene-4-carboxylate] | – | 3.72 | 1.55 | – | 4.42 | 4.34 | 3.82 |

— PMC10893060, “Synthesis and Study of the Structure–Activity Relationship of Antiproliferative N-Substituted Isosteviol-Based 1,3-Aminoalcohols” (Pharmaceuticals, 2024)
